Laboratory results as given in US20230285570A1, “THERAPEUTICALLY USEFUL CURE-PRO MOLECULES FOR E3 LIGASE MEDIATED DEGRADATION OF PROTEINS, AND METHODS OF MAKING AND USING THEM” (CORNELL UNIVERSITY, priority 2020, published 2023).
“Also recorded” adds a separate entry of the source.

How the values were obtained:
BRD4 [1] = molecular target: T1, BRD4 (Homo sapiens, UniProt O60885); test: CURE-PRO-mediated BRD4 degradation in HCT116 cells, WES (ProteinSimple); format: cell-based; set-up: endogenous in cells; settings: for BRD4 degradation: 10 μM
Method: All cell lines were purchased from ATCC or DSMZ and grown at 37° C. with 5% CO2. Human HeLa cells were cultured in complete growth medium (Dulbecco's modified Eagle's medium (DMEM) supplemented with 10% FBS); MCF7 cells were cultured in complete growth medium (Dulbecco's modified Eagle's medium (DMEM) supplemented with 10% FBS and 0.01 mg/ml human recombinant insulin (Sigma Aldrich); Namalwa and Ramos cells were cultured in complete growth medium (RPMI 1640 medium supplemented with 10% FBS); HCT116 and HT29 cells were cultured in complete growth medium (McCoy's 5a Medium supplemented with 10% FBS). For cellular degradation of BRD4 studies cells were seeded in a 12-well plate at 70-80% confluency, allowed to attach overnight, and incubated with the indicated compounds for the indicated time. When indicated, a 15-minute pretreatment with 10 μM pomalidomide, 10 μM VHL298, 10 μM Nutlin3a, 1 μM MG-132 or 1 μM Carfilzomib was performed before the addition of CURE-PROs. For washout studies, after CURE-PRO treatment, media was aspirated and incubated with complete medium for the indicated time before lysis.
WES Simple analysis was performed on WES system (ProteinSimple-Biotechne) according to the manufacturer's instructions. Total protein concentrations of cell lysates were determined by the Pierce BCA kit (Thermo Fisher). 3 μL of 0.3 μg/μL of the protein lysate was loaded onto a 12- to 230-kDa WES assay plate (ProteinSimple) where 300 nL sample was withdrawn through a capillary, subjected to electrophoretic separation of proteins by size, and followed by the simultaneous, HRP-based detection of proteins using the Anti-Rabbit Detection Module (Proteinsimple: #DM-001). The electropherograms were checked then the automatic peak detection was manually corrected if it was required.
(§1) HCT116 cells (3×10^6) were treated for 24 hours with the compounds solubilized in DMSO. Compounds were added at 1 μM-10 μM each. Standardized protein samples were electrophoresed and imaged as described in the WES ProteinSimple section above. FIGS. 59, 60, and 61 depict the concentration-dependence of CURE-PRO-mediated BRD4 degradation using MDM2 ligands.
as §1, with “62” for “59, 60,”, “63” for “61”
HCT116 cells (3×10^6) were treated for 24 hours with the compounds solubilized in DMSO. CURE-PRO monomers were added at 10 μM each and the proteasomal inhibitors at 1 μM. Standardized protein samples were electrophoresed and imaged as described in the WES ProteinSimple section above. FIG. 68 depicts the dependence of the proteasome for CURE-PRO-mediated BRD4 degradation.

MV-4-11 cells = test: CellTiter-Glo cell viability, MV-4-11 cells; format: cell-based; settings: co-dosed 1:1 with CRBN ligand 8049, MV-4-11, 24 h, 1 nM-100 μM each
Summary of the method: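 Viability by CellTiter-Glo luminescence. One protocol: 5×10^4 MV-4-11 cells, 24 h, compounds at 1 nM-100 μM each; other: 1×10^4 cells, 72 h, 10 nM-100 μM each. BRD ligands combined 1:1 with CRBN ligands; dose-response curves fitted.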

BRD2 = molecular target: T2, BRD2 (Homo sapiens, UniProt P25440); test: BRD protein family degradation in HCT116 cells, Western blot: BRD2; format: cell-based; settings: 1:1 with MDM2 ligands 8310 and 8312 (each), HCT116, 24 h, 100 nM-10 μM
T2 construct: endogenous in cells; host or cells: HCT116
Method: (§2) Namalwa, Ramosm HeLa, MCF7, or HT29 HCT116 cells (2.5-3×10^6) were treated for 24 hours with the indicated compounds solubilized in DMSO. The cells were washed in ice-cold PBS and were then lysed in RIPA lysis buffer (150 mM NaCl, 5 mM EDTA, 1% NP-40, 0.5% sodium deoxycholate, 0.1% SDS, 50 mM Tris, pH 8.0.) with Roche protease inhibitor complete cocktail and phosphatase inhibitors (10 mM sodium fluoride, 10 mM sodium pyrophosphate, 1 mM sodium orthovanadate and 20 mM β-glycerophosphate). The total protein concentrations were determined by Bradford Protein Assay (Pierce) and 10-20 μg of protein was loaded onto 4-15% Tris-Glycine gradient gels (Biorad). After standard gel electrophoresis, the separated proteins were transferred to PVDF membrane by wet transfer. The immunoblots were then blocked for 1 hour in 5% skim milk in TBST or 5% BSA in TBST, according to manufacturer's instructions, before an overnight incubation at 4° C. with indicated antibodies and membranes. […] Signal was detected with ECL Western Blotting Substrate (Pierce) and X-ray film processed with a Konica SRX-101 X-ray film processor or captured by Bio-Rad's Chemidoc Imaging system. […]

BRD3 = molecular target: T3, BRD3 (Homo sapiens, UniProt Q15059); test: BRD protein family degradation in HCT116 cells, Western blot: BRD3; format: cell-based; settings: 1:1 with MDM2 ligands 8310 and 8312 (each), HCT116, 24 h, 100 nM-10 μM
T3 construct: endogenous in cells; host or cells: HCT116
Method: as §2

BRD4 [2] = molecular target: T1, BRD4; test: Summary of BRD4 degradation by CURE-PRO pairs, estimated from Western Blot or WES; format: cell-based; set-up: endogenous in cells
Summary of the method: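 Degradation read-out from immunoblot with ECL, or WES capillary electrophoresis with HRP detection, of RIPA lysates. Cells (Namalwa, Ramos, HeLa, MCF7, HT29 or HCT116) were exposed to DMSO-solubilized compounds for 24 h; a check mark marks 30% to 70% or higher degradation.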

SLC19A1 = test: RT-PCR of c-MYC downstream target gene SLC19A1 in HeLa cells; format: cell-based, Human; settings: combined with MDM2 ligand 8312, HeLa, 10 μM each, 24 h
Method: The suppression of the expression of the downstream c-MYC target, SLC19A1, was measured by RT-PCR using Power SYBR® Green Cells-to-Ct™ Kit (Life Technologies). Adherent cells were plated on 96 well plates at 5,000 cells per well were treated for 24 h with monomer compounds and compounds capable of reversible interactions (1 nM-100 μM). Cells were subsequently washed in ice-cold PBS processed according to the manufacturer's instructions. Quantitative real-time PCR was performed using a ViiA™ 7 Real-time PCR System (Applied Biosystems, Foster City, Calif., USA). GAPDH and ACTB served as internal controls.
HeLa cells (1×10^4) were treated for 24 hours in 96 well plates with the compounds solubilized in DMSO. Compounds were added at 10 μM each and RNA expression measured by the Cells-to Ct method described above (Thermofisher).

BRD4 [3] = molecular target: T1, BRD4; test: BRD protein family degradation in HCT116 cells, Western blot: BRD4; format: cell-based; set-up: endogenous in cells
Method: Namalwa, Ramosm HeLa, MCF7, or HT29 HCT116 cells (2.5-3×10^6) were treated for 24 hours with the indicated compounds solubilized in DMSO. The cells were washed in ice-cold PBS and were then lysed in RIPA lysis buffer (150 mM NaCl, 5 mM EDTA, 1% NP-40, 0.5% sodium deoxycholate, 0.1% SDS, 50 mM Tris, pH 8.0.) with Roche protease inhibitor complete cocktail and phosphatase inhibitors (10 mM sodium fluoride, 10 mM sodium pyrophosphate, 1 mM sodium orthovanadate and 20 mM β-glycerophosphate). The total protein concentrations were determined by Bradford Protein Assay (Pierce) and 10-20 μg of protein was loaded onto 4-15% Tris-Glycine gradient gels (Biorad). After standard gel electrophoresis, the separated proteins were transferred to PVDF membrane by wet transfer. The immunoblots were then blocked for 1 hour in 5% skim milk in TBST or 5% BSA in TBST, according to manufacturer's instructions, before an overnight incubation at 4° C. with indicated antibodies and membranes. Membranes were then incubated with the appropriate horseradish peroxidase-conjugated secondary antibodies (1:5,000 dilution) for 1 h at room temperature and the bands were visualized using the Clarity Max Western ECL Substrate (Biorad) and the ChemiDoc Imaging System (Biorad). Signal was detected with ECL Western Blotting Substrate (Pierce) and X-ray film processed with a Konica SRX-101 X-ray film processor or captured by Bio-Rad's Chemidoc Imaging system.
as §1, with “100 nM-10” for “1 μM-10”, “Immunoblotting” for “WES ProteinSimple”, “64” for “59, 60,”, “65” for “61”, “BRD2 and BRD3” for “BRD4”

T2 sequence (P25440 whole entry): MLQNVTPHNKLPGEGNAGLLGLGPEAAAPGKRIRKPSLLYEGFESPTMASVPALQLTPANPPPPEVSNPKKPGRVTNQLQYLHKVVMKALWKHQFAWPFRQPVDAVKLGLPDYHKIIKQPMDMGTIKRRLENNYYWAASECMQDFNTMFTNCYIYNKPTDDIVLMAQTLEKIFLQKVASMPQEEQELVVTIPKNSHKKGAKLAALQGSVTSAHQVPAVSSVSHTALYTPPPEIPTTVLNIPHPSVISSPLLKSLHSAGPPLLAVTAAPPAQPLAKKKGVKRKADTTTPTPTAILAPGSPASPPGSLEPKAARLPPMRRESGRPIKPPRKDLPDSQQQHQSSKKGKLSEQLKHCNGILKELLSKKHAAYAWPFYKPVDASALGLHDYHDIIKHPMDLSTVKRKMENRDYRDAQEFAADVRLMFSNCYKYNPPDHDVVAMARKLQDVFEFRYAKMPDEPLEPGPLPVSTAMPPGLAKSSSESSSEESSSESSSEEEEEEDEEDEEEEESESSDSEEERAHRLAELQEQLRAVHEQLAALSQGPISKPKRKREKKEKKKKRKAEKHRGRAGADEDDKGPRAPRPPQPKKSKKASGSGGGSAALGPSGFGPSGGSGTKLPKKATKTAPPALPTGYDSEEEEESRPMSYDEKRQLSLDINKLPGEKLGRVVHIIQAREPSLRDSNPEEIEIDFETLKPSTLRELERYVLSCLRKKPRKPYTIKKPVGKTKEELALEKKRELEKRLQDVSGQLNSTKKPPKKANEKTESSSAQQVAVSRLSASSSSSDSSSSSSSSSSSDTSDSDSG
T3 sequence (Q15059 whole entry): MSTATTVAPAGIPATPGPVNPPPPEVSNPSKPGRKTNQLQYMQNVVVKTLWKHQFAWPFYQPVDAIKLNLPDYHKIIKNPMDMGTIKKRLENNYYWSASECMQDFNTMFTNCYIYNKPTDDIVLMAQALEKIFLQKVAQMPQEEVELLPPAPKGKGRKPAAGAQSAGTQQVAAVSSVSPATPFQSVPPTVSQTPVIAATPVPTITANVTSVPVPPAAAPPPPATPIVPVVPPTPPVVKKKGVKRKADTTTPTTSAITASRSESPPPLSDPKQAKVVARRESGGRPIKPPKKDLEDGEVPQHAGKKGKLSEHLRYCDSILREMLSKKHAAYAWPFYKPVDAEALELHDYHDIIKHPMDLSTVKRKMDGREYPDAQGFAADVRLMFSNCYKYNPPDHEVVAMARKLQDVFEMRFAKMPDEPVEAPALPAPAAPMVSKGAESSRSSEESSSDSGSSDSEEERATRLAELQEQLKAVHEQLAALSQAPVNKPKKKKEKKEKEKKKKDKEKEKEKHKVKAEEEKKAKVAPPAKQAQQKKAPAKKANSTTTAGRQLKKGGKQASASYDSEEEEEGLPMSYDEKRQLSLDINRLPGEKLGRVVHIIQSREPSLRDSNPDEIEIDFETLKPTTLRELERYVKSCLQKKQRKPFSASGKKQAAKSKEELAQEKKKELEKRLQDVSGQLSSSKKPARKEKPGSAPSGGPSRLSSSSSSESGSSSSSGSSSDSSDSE

CCNC(=O)C[C@@H]1N=C(c2ccc(Cl)cc2)c2cc(OCCNC(=O)c3cccc(O)c3O)ccc2-n2c(C)nnc21 [BRD-N25]
BRD4 degradation with proteasome inhibitors (BRD4 [1]; 1:1 with 8310 at 10 μM, pre-incubation with MG-132 and Carfilzomib 1 μM, HCT116): inhibited by the pre-incubation with MG-132 and Carfilzomib; also recorded: inhibited with the proteasome inhibitors, MG-132 and Carfilzomib | BRD4 degradation (BRD4 [1]; 1:1 with MDM2 ligand 8310, HCT116, 24 h): caused BRD4 degradation; also recorded: marked BRD4 degradation | BRD4 degradation (BRD4 [1]; 1:1 with MDM2 ligand 8312, HCT116, 24 h): caused BRD4 degradation | loss of cellular viability (toxicity) (MV-4-11 cells): concentration-dependent loss in cellular viability; also recorded: increased toxicity | BRD2 degradation (BRD2): BRD2 to a lesser extent; also recorded: Degradation is evident | BRD3 degradation (BRD3): degradation of BRD3; also recorded: Degradation is evident | Degradation of BRD4, combination with MDM2 ligand 8310 (BRD4 [2]; Table 5, aromatic 1,2-diol BRD4 ligand + 8310): √ (A black check mark indicates efficacy of 30% to 70% or higher protein degradation) | Degradation of BRD4, combination with MDM2 ligand 8312 (BRD4 [2]; Table 5, aromatic 1,2-diol BRD4 ligand + 8312): √ (A black check mark indicates efficacy of 30% to 70% or higher protein degradation) | suppression of SLC19A1 expression (SLC19A1): suppressed more substantially | BRD4 degradation (BRD4 [3]; 1:1 with MDM2 ligands 8310 and 8312 (each), HCT116, 24 h, 100 nM-10 μM): caused BRD4 degradation; also recorded: Degradation is evident | selectivity of degradation among BRD2, BRD3 and BRD4 (BRD4 [3]; with MDM2 ligands 8310 and 8312, HCT116, Western blot): some selectivity for BRD3 and BRD4 over BRD2 for 8310 is noted
